We go through eleven molecules from paper PMC8954540, “A New Class of PSMA-617-Based Hybrid Molecules for Preoperative Imaging and Intraoperative Fluorescence Navigation of Prostate Cancer” (Pharmaceuticals, 2022).

As usually defined, the Ki is the equilibrium dissociation constant of an inhibitor or competing ligand from its target. Read a low Ki as a stronger hold on the target. The term IC50 denotes the concentration that inhibits the measured activity by half. High values mean weaker potency in that assay, low ones greater potency in that assay.

Starred links: 1 amine or outer side, 2 acyl side, 3 side chain; linkers in the order of their positions; H or OH if unused. Non-standard residues stand in square brackets, D forms with d. Residues, ends and D or L forms follow the SMILES beside them. *: point of attachment. FITC = O=C1OC2(c3ccc(O)cc3Oc3cc(O)ccc32)c2ccc(NC(=S)*)cc21; DOTA = O=C(O)CN1CCN(CC(=O)O)CCN(CC(=O)*)CCN(CC(=O)O)CC1; X2 = O=C(O)CCC(NC(=O)NC(CCCCN*)C(=O)O)C(=O)O; 2Nal = N[CH](Cc1ccc2ccccc2c1)C(=O)O; X1 = O=C(C1CCC(CN[*:1])CC1)[*:2]

Data set [1] deals with LNCaP-tumor bearing BALB/c nu/nu mice. The conditions noted are these: cited from earlier work; for tumor enhancement after dye conjugation: compared with PSMA-927.
The target in data set [2] is T1, PSMA (Homo sapiens, UniProt Q04609).
T1 construct: LNCaP cells (CRL-1740; ATCC; PSMA-positive); host or cells: LNCaP cells
Kind of data set: Competitive cell binding assay (radioligand 68Ga-PSMA-10). The conditions noted are these: free ligands, mean ± SD, n = 3; for Ki: Ki=IC50/(1+cradioligand/Kd); for IC50: radioligand 68Ga-PSMA-10, 0.75 nmol/L. As to the method:
(§1) LNCaP cells (CRL-1740; ATCC; PSMA-positive) and PC-3 cells (CRL-1435; ATCC; PSMA-negative) were cultured in RPMI medium (Thermo Fisher Scientific, Waltham, MA, USA) supplemented with 10% fetal calf serum and 2 mmol/L L-glutamine (all from (Thermo Fisher Scientific, Waltham, MA, USA) ) at 37 °C in humidified air with 5% CO2. Cells were harvested using trypsin-ethylenediaminetetraacetic acid (trypsin-EDTA; 0.25% trypsin, 0.02% EDTA, Invitrogen, Waltham, MA, USA). Cell line authentication was regularly performed. Binding affinities and internalization profiles of the ^68Ga-labeled compounds were determined in competitive cell binding assays and internalization experiments as described previously.

For data set [3], the system named is LNCaP cells. Kind of data set: Specific cell surface binding and internalization of 68Ga-labeled compounds. In kind it is cell-based. To be noted: 68Ga-labeled compounds; blockage with 500 µmol/L 2-PMPA; mean ± SD, n = 3. As to the method:
as §1

The nature of data set [4]: Lipophilicity, logD at pH 7.4 in n-octanol/PBS. In kind it is physicochemical. To be noted: 68Ga-labeled ligand. As to the method:
The synthesis was performed according to previously published protocols. Details on synthesis and analytical data of the compounds are provided in the Supplementary Materials (Compound Synthesis and Analytical Characterization). […] Using 30% NaOH (Sigma-Aldrich, Darmstadt, Germany) and 10% NaOH (Sigma-Aldrich, Darmstadt, Germany), the pH was adjusted to 3.8. The reaction mixture was incubated at 98 °C for 5–10 min. The radiochemical yield was analyzed by reversed-phase high-performance liquid chromatography (RP-HPLC) or reversed-phase thin-layer chromatography (RP-TLC, 60 RP-18 F254S, Sigma-Aldrich, Darmstadt, Germany) with 0.5 M ammonium acetate/methanol (1:1) as the mobile phase. The lipophilicity of the ^68Ga-labeled compounds was determined using the 2-phase system n-octanol and PBS.

For data set [5], the system named is LNCaP cells. Also noted: method as in PMID 26878194. To be noted: cited from earlier work.
On the set-up of data set [6]: method as in PMID 25883127. The conditions noted are these: n-octanol/PBS; cited from earlier work.
Details of data set [7]: method as in PMID 16194449. The conditions noted are these: free dye; cited from earlier work.
Details of data set [8]: method as in PMID 29752180. The conditions noted are these: twelve weeks after the first dose; cited from earlier work.
Details of data set [9]: method as in PMID 34161051. To be noted: 831 patients; cited from earlier work.

T1 sequence (Q04609 whole entry): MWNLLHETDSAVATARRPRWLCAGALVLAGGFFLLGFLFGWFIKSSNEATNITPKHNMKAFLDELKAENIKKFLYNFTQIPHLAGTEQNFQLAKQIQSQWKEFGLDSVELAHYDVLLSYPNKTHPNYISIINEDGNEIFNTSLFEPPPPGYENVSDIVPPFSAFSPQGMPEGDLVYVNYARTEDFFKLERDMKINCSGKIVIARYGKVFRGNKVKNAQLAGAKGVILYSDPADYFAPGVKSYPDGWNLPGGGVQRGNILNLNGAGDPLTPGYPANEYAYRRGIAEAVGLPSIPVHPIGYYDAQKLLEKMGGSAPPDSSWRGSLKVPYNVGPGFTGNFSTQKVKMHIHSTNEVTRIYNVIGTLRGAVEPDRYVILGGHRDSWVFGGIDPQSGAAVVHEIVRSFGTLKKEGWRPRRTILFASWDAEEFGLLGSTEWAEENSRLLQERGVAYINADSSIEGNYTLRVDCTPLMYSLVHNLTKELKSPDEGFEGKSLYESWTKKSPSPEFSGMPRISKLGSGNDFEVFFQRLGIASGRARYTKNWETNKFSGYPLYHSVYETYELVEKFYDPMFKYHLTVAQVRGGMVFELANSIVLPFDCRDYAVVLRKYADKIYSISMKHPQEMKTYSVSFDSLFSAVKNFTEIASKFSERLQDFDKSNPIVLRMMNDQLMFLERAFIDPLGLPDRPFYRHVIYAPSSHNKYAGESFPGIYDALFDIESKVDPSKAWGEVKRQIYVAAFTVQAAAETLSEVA

For the molecule “[^68Ga]Ga-Glu-urea-Lys-HBED-CC-IRDye800CW”, the “tumor enhancement after dye conjugation” value in [1] was “significantly higher tumor enhancement”.

In data set [2], `O=C(O)CCC(NC(=O)NC(CCCCNC(=O)C(Cc1ccc2ccccc2c1)NC(=O)C1CCC(CNC(=O)C(CCCCNC(=S)Nc2ccc3c(c2)C(=O)OC32c3ccc(O)cc3Oc3cc(O)ccc32)NC(=O)C(CCC(=O)O)NC(=O)CN2CCN(CC(=O)O)CCN(CC(=O)O)CCN(CC(=O)O)CC2)CC1)C(=O)O)C(=O)O` (stereo not drawn) [PSMA-922, Glu-urea-Lys-2-Nal-Chx-Lys(Fluorescein)-E1-DOTA] returned a Ki of 5.78 ± 1.32 nM and an IC50 of 6.93 ± 1.29 nM. In addition, in data set [3], the “Specifically Cell Surface Bound” value worked out at 6.33 ± 1.53 %AR/10^5 Cells and the “Specifically Internalized” value was 13.74 ± 5.75 %AR/10^5 Cells. For the same molecule, the “Lipophilicity logDpH 7.4 n-octanol/PBS” value in data set [4] is reported as -2.07 ± 0.06.

In [2], `O=C(O)CCC(NC(=O)NC(CCCCNC(=O)C(Cc1ccc2ccccc2c1)NC(=O)C1CCC(CNC(=O)C(CCCCNC(=O)CN2CCN(CC(=O)O)CCN(CC(=O)O)CCN(CC(=O)O)CC2)NC(=O)C(CCC(=O)O)NC(=O)C(CCC(=O)O)NC(=S)Nc2ccc3c(c2)C(=O)OC32c3ccc(O)cc3Oc3cc(O)ccc32)CC1)C(=O)O)C(=O)O` (stereo not drawn) [PSMA-926, Glu-urea-Lys-2-Nal-Chx-Lys(DOTA)-E2-Fluorescein] ({FITC}-EEK(DOTA)[X1][2Nal]-X2; configuration not given here) displayed a Ki of 7.16 ± 2.63 nM and an IC50 of 8.59 ± 2.57 nM. Besides, in data set [3], the “Specifically Cell Surface Bound” value is 10.12 ± 4.85 %AR/10^5 Cells and the “Specifically Internalized” value came to 11.86 ± 5.31 %AR/10^5 Cells. Moreover, the “Lipophilicity logDpH 7.4 n-octanol/PBS” value in data set [4] was -2.13 ± 0.03.

For `O=C(O)CCC(NC(=O)NC(CCCCNC(=O)C(Cc1ccc2ccccc2c1)NC(=O)C1CCC(CNC(=O)C(CCCCNC(=O)CN2CCN(CC(=O)O)CCN(CC(=O)O)CCN(CC(=O)O)CC2)NC(=S)Nc2ccc3c(c2)C(=O)OC32c3ccc(O)cc3Oc3cc(O)ccc32)CC1)C(=O)O)C(=O)O` (stereo not drawn) [PSMA-924, Glu-urea-Lys-2-Nal-Chx-Lys(DOTA)-Fluorescein], in [2], the Ki is 3.87 ± 1.76 nM and the IC50 turned out to be 4.64 ± 1.23 nM. In addition, in data set [3], the “Specifically Cell Surface Bound” value was 1.11 ± 0.81 %AR/10^5 Cells and the “Specifically Internalized” value turned out to be 1.11 ± 0.94 %AR/10^5 Cells. The “Lipophilicity logDpH 7.4 n-octanol/PBS” value in data set [4] is listed as -2.38 ± 0.07.

In data set [2], `O=C(O)CCC(NC(=O)NC(CCCCNC(=O)C(Cc1ccc2ccccc2c1)NC(=O)C1CCC(CNC(=O)C(CCCCNC(=O)CN2CCN(CC(=O)O)CCN(CC(=O)O)CCN(CC(=O)O)CC2)NC(=O)C(CCC(=O)O)NC(=S)Nc2ccc3c(c2)C(=O)OC32c3ccc(O)cc3Oc3cc(O)ccc32)CC1)C(=O)O)C(=O)O` (stereo not drawn) [PSMA-925, Glu-urea-Lys-2-Nal-Chx-Lys(DOTA)-E1- Fluorescein] gave a Ki of 6.77 ± 3.66 nM and an IC50 of 8.12 ± 3.59 nM. Further, in [3], the “Specifically Cell Surface Bound” value stood at 2.67 ± 0.95 %AR/10^5 Cells and the “Specifically Internalized” value was 3.03 ± 2.17 %AR/10^5 Cells. For the same molecule, the “Lipophilicity logDpH 7.4 n-octanol/PBS” value in [4] is -2.05 ± 0.02.

As to `O=C([O-])CN1CCN(CC(=O)[O-])CCN(CC(=O)NCC2CCC(C(=O)NC(Cc3ccc4ccccc4c3)C(=O)NCCCCC(NC(=O)NC(CCC(=O)O)C(=O)O)C(=O)O)CC2)CCN(CC(=O)[O-])CC1.[68Ga+3]` (stereo not drawn) [[^68Ga]Ga-PSMA-617], in [5], the cell surface binding is reported as 11.40 ± 6.60 %ID/10^5 LNCaP cells and the specific internalization is on record as 16.17 ± 3.66 %ID/10^5 LNCaP cells. For the same molecule, the “logDpH 7.4” value in [6] is “–2.00”. For the same molecule, the tumor uptake in data set [1] (1 h p.i.) is given as 8.47 ± 4.09 % ID/g.

As to `CC1(C)C(=CC=C2CCCC(C=CC3=[N+](CCCCCC(=O)[O-])c4ccc(S(=O)(=O)[O-])cc4C3(C)C)=C2Oc2ccc(S(=O)(=O)[O-])cc2)N(CCCCS(=O)(=O)[O-])c2ccc(S(=O)(=O)[O-])cc21.[Na+].[Na+].[Na+].[Na+]` [IRDye800CW], in [7], the absorption maximum is listed as 775 nm and the emission maximum is on record as 796 nm.

Regarding `O=C([O-])CN1CCN(CC(=O)[O-])CCN(CC(=O)NCC2CCC(C(=O)NC(Cc3ccc4ccccc4c3)C(=O)NCCCCC(NC(=O)NC(CCC(=O)O)C(=O)O)C(=O)O)CC2)CCN(CC(=O)[O-])CC1.[177Lu+3]` (stereo not drawn) [[^177Lu]Lu-PSMA-617], in data set [8], the “patients with PSA decline greater than 50%” value is on record as “half of the patients” and the “patients with PSA decline greater than 80%” value is reported as 27%. In [9], the overall survival entry is “significantly improves overall survival” and the “tolerability of the treatment regimen” value is “very well-tolerated”.

On to “[^68Ga]Ga-Glu-urea-Lys-(HE)3-HBED-CC-IRDye800CW”, for which, in [1], the “tumor enhancement after dye conjugation” value was “significantly higher tumor enhancement”.

With `O=C(O)CCC(NC(=O)NC(CCCCNC(=O)C(Cc1ccc2ccccc2c1)NC(=O)C1CCC(CNC(=O)C(CCCCNC(=S)Nc2ccc3c(c2)C(=O)OC32c3ccc(O)cc3Oc3cc(O)ccc32)NC(=O)CN2CCN(CC(=O)O)CCN(CC(=O)O)CCN(CC(=O)O)CC2)CC1)C(=O)O)C(=O)O` (stereo not drawn) [PSMA-921, Glu-urea-Lys-2-Nal-Chx-Lys(Fluorescein)-DOTA], in [2], the affinity corresponds to a Ki of 4.03 ± 0.95 nM and the IC50 was 4.83 ± 0.93 nM. In addition, in data set [3], the “Specifically Cell Surface Bound” value worked out at 7.06 ± 3.32 %AR/10^5 Cells and the “Specifically Internalized” value is recorded as 15.82 ± 6.18 %AR/10^5 Cells. Moreover, the “Lipophilicity logDpH 7.4 n-octanol/PBS” value in data set [4] is reported as -2.36 ± 0.03.

In data set [2], `O=C(O)CCC(NC(=O)NC(CCCCNC(=O)C(Cc1ccc2ccccc2c1)NC(=O)C1CCC(CNC(=O)C(CCCCNC(=S)Nc2ccc3c(c2)C(=O)OC32c3ccc(O)cc3Oc3cc(O)ccc32)NC(=O)C(CCC(=O)O)NC(=O)C(CCC(=O)O)NC(=O)CN2CCN(CC(=O)O)CCN(CC(=O)O)CCN(CC(=O)O)CC2)CC1)C(=O)O)C(=O)O` (stereo not drawn) [PSMA-923, Glu-urea-Lys-2-Nal-Chx-Lys(Fluorescein)-E2-DOTA] ({DOTA}-EEK(FITC)[X1][2Nal]-X2; configuration not given here) had a Ki of 5.95 ± 1.99 nM and an IC50 of 7.14 ± 1.95 nM. In addition, in data set [3], the “Specifically Cell Surface Bound” value is on record as 9.82 ± 0.67 %AR/10^5 Cells and the “Specifically Internalized” value came to 21.55 ± 9.24 %AR/10^5 Cells. Further, the “Lipophilicity logDpH 7.4 n-octanol/PBS” value in data set [4] is -2.16 ± 0.04.
